Laboratory results taken from patent US20240074473A1, “METHOD FOR INDUCING HYPERTROPHIC MUSCLE FIBERS FOR INDUSTRIAL MEAT PRODUCTION” (Yeda Research and Development Co. Ltd., priority 2021, published 2024).

Assays:
[1] = tested on: primary chicken myoblasts; test: Fusion index of primary chicken myoblasts (MyHC immunostaining); type: cell-based; settings: for Fusion: 48 hours post treatment
Protocol: (§1) Chicken primary derived myoblasts were used as a model to evaluate the efficiency of SCH772984 as the ERKi, compared to conventional differentiation medium (DM) for the purpose of producing muscle (meat) in tissue culture conditions. Chicken myoblasts were isolated from chicken embryos and expanded in proliferation medium. When sufficient cell numbers were acquired, cells were seeded on tissue culture plates and allowed to adhere for 24 hours. Then medium was changed to either PM supplemented with ERKi or DM. At 24-hours post treatment, the cells that received ERKi were replenished with fresh PM (without the addition of more ERKi), and DM treated cells were replenished with fresh DM. Media was replaced daily over a period of 72 hours.
Evaluation of muscle fiber formation was achieved by fixing the cells and staining for expression of Myosin Heavy Chain (FIG. 9A). […] Yet, treatment with conventional DM only began to form fibers beginning at 72-hours post treatment. A fusion index was quantified at 72 hours post treatment (FIG. 9B), in which the percentage of total nuclei present in a myotube (MyHC positive cell with 2 or more nuclei).
Primary chicken myoblast isolation and treatment: chicken myoblasts were isolated from broiler chicken embryos at day 18 from breast and leg muscles by using Trypsin B. Following tissue dissociation, the cell suspension was grown for 3-4 days on 10% Matrigel coated plates. At the first passage, the cells were lifted and pre-plated twice for 30 minutes to enrich for myoblasts and reduce the number of fibroblasts. Then cells were seeded at 8,000/well of optical-96 well plates in proliferation medium. 24 hours after plating, media was aspirated and replaced with the indicated treatment conditions in proliferation media or differentiation media (as indicated). After 24 hours with treatment, the media was aspirated and all wells were replenished with fresh proliferation media or differentiation media without any treatment. This was repeated daily. Cells were fixed at 48 hours after treatment. Compounds were purchased from Cayman Chemicals.
Immunofluorescent staining: Cells were fixed with ice cold 4% PFA in PBS for 10 minutes, permeabilized with 0.5% Triton X-100 in PBS for 6 minutes, and blocked in PBS with 0.025% tween, 10% normal horse serum and 10% normal goat serum for 1 hour at room temperature. Primary antibody incubation was done in blocking buffer overnight at 4 degrees, with the following antibodies: Myosin Heavy Chain (MyHC, MF20, DSHB hybridoma supernatant 1:10, alpha-actinin (SIGMA A7811). Cells were washed 3 times in PBS with 0.025% tween and then incubated with appropriate secondary antibodies in PBS 1 hour. Nuclei were labeled with DAPI (SIGMA D9542, 5 ug/ml). All fusion indexes and imaging analysis were performed on at least 1000 per technical repeat.

ERK1/2 and RXR = test: Co-immunoprecipitation of ERK1/2 and RXR in myoblasts; type: cell-based, mouse; settings: 1 uM, 4 hours, nuclear lysates
Protocol: Co-immunoprecipitation (Co-IP). Primary myoblasts derived from gastrocnemius muscle were pooled from 10 mice and plated on 15 cm dishes and allowed to adhere for 24 hours. The following day, Bio-Amf2 media was replaced supplemented either with DMSO or 1 uM SCH772984. […] 1 mg of protein was used to immunoprecipitate ERK1/2 using 2 ug of ERK1/2Antibody (Sigma M7927). Rabbit IgG was used as a control. […] 1% of original volume of lysate loaded into IP reaction was loaded into the gel as input control. Membranes were blotted with RXR antibody (SCBT sc-553).

chicken myoblasts = test: Immunofluorescence of sarcomeric proteins in chicken myotubes; type: cell-based; settings: 48 hours post treatment
Protocol: as §1

bovine myoblasts = test: Immunofluorescence intensity of sarcomeric proteins in bovine myotubes; type: cell-based; settings: 96 hours post-treatment
Protocol: Shown is immunofluorescence staining of the sarcomeric components of myosin heavy chain (MyHC), alpha-actinin, and Tropoinin T at 96 hours post treatment either with proliferation media (PM), differentiation media (DM), or with 1 uM SCH 772984 (ERKi).

primary mouse myoblasts = test: qRT-PCR gene expression in primary mouse myoblasts; type: cell-based
Protocol: Quantitative real-time PCR (qRT-PCR). Total RNA was isolated using Tri-Reagent (SIGMA) according to the manufacturer's instructions. cDNA was synthesized with the High Capacity cDNA Reverse Transcription Kit (Applied Biosystems according to the manufacturer's instructions. qRT-PCR was performed with SYBR green PCR Master Mix (Applied Biosystems) using the StepOnePlus Real-time PCR system (Applied Biosystems). Values for specific genes were normalize to either Gapdh or Hprt housekeeping control as indicated in Figure legend. Expression was calculated using the ddCT method.
First passage primary mouse derived myoblast were seeded in proliferation media, in equal number in 12-well tissue culture plates that were precoated with 10% Matrigel solution. Following 24 hours to allow for complete attachment, culture media was washed and replaced either with fresh proliferation media (PM), PM supplemented with 1 uM SCH 772984 (ERKi) or differentiation media (DM). After 24 hrs, cells were lysed and RNA was collected. Gene expression analysis was carried out using SYBR green qRT-PCR analysis.

primary bovine myoblasts = test: Fusion index of primary bovine myoblasts; type: cell-based; settings: single administration of 0.5 uM, 72 hours post treatment
Protocol: Bovine myoblasts were seeded in equal number in 96-well plates and the following day treated either with PM, PM supplemented with 0.5 uM SCH 772984 (ERKi) or differentiation media (DM). Media was replenished daily either with fresh PM or DM (ERKi was not added again). At 72 hours post treatment, cells were fixed and stained for myosin heavy chain, and several fields per condition were imaged. Nuclei per fiber was quantified per field to result in a fusion index. For ovine myoblasts—equal number of cells were seeded in an 8 well chamber slide for 24 hours. The following day cells were treated with either with 1 uM SCH 772984 (ERKi) or differentiation media (DM), supplemented with 100 nM of Sir-Actin reagent, then incubated for 4 hours and then the slide was transferred to a heated and CO2 chambered microscope unit. Several fields of view were selected and live imaging was performed by capturing images of each field every 7 minutes. The series of images for each treatment over a period of 31 hours was stacked into a movie file using ImageJ.
Primary bovine myoblast isolation and treatment: bovine myoblasts were isolated from freshly slaughtered muscle cow muscle with collagenase type II. Following tissue dissociation, the cell suspension was grown for 3-4 days on 10% Matrigel coated plates. […]

O=C(Nc1ccc2[nH]nc(-c3ccncc3)c2c1)[C@@H]1CCN(CC(=O)N2CCN(c3ccc(-c4ncccn4)cc3)CC2)C1 [SCH772984]
Muscle fibers begin to form earlier than with DM ([1]; chicken myoblasts): 48 h
Increase in fusion index compared to DM ([1]; chicken myoblasts, 72 hours post treatment): ~4 fold
Fusion index (percentage of total nuclei in MyHC positive cell with 2 or more nuclei) ([1]; chicken myoblasts, 72 hours post treatment, ERKi in PM vs DM): 62%
Time at which myotubes/fibers begin to form ([1]; chicken myoblasts, post treatment): ≤ 24 h
Fusion ([1]; primary chicken myoblasts, Differentiation media, 1 uM): 46%
Fusion ([1]; primary chicken myoblasts, Differentiation media, 10 uM): 61%
Fusion ([1]; primary chicken myoblasts, Proliferation media, 1 uM): 59%
Fusion ([1]; primary chicken myoblasts, Proliferation media, 10 uM): 69%
Fusion index ([1]; primary chicken myoblasts, proliferation medium, ERKi treatment alone (SCH772984 1 uM), 48 hours): 62%
RXR immunoprecipitated with ERK1/2 (interaction) (ERK1/2 and RXR): attenuated
Sarcomeric structure (striation of actinin, troponin, phalloidin signals) (chicken myoblasts): sarcomeric structure is already apparent
Maturation markers (sarcomeric proteins MyHC, actinin, troponin signal intensity) compared to DM (bovine myoblasts): increased
Expression of Ryr1, Ryr3, SERCA1/2, Orai and STIM (primary mouse myoblasts; ERKi 24 hrs vs Ctrl): upregulated
Expression of differentiation and fusion factors MyoD, MyoG, Mymk, Mymx (primary mouse myoblasts; ERKi in growth medium, time course): upregulated
Expression of maturation markers myosin heavy chain and troponin compared to DM (primary mouse myoblasts; mouse myoblasts, 1 uM ERKi in PM, 24 hrs): stronger expression
Increase in fusion index compared to DM (primary bovine myoblasts): ~8 fold
Increase in fusion index compared to DM (primary bovine myoblasts; listed as ERKi): 6 fold
